Measured values: patent US8715684B2, “Peptides inducing a CD4i conformation in HIV gp120 while retaining vacant CD4 binding site” (priority 2007, dated 2014)
Entries after “also recorded” stand apart in the source; their conditions may differ. Like-named read-outs stand apart in the source and are kept apart here.

Legend:
gp120JR-FL = assay: Binding of peptides to gp120 of the JR-FL isolate; parameters: species or system HIV-1
gp120451 = assay: Dot blot of phage-displayed peptides incubated with gp120451, probed with defining mAbs or CD4 (FIG. 1, 4); assay type: binding, HIV-1
Experimental: Phages expressing the m1 peptide as protein fusions (m1) or not (fth1, as a negative control) were applied to nitrocellulose membranes as dots and incubated with or without gp120451. After washing, the filters were probed with either anti-gp120 mAb or the CG10 mAb as indicated and signals were developed by enhanced chemiluminescence (ECL)
Of the gp120-binding peptides isolated, one was particularly unique. […] As noted above, binding of CG10 to its epitope is absolutely dependent on the CD4i conformation of gp120. It was concluded that m1 binds to the CD4 binding site and acts as a CD4 mimetic, triggering a structural rearrangement locking gp120 into the CD4i conformation.
Because the CD4i conformation of gp120 can disrupt the integrity/accessibility of important neutralizing epitopes of gp120 [e.g. b12 (Xiang et al., 2002, supra)] the binding of a panel of neutralizing antibodies was tested.

CD4 = CD4 (Homo sapiens, UniProt P01730); assay: Capture ELISA of m1 phages with CD4 alone (FIG. 2E); assay type: binding; conditions: CD4 without gp120
Text: Anti-M13 (phage) antibody was adsorbed to microplate wells to capture either m1 peptide-expressing phages (A, B, D, E) or fth1-negative control phage (C).

gp120BaL = assay: Dot blot of m2 phages with gp120BaL, probed with panel of defining mAbs (FIG. 8); assay type: binding, HIV-1
Text: Each dot was applied in duplicate.
A second measure of “improved peptide” characteristics is the ability to bind gp120s derived from other HIV-1 isolates. (m1 was developed using gp120451.) The preference was to identify a peptide that has the same type of effect on the BaL isolate of HIV-1 as does the m1-peptide for the 451 isolate.

gp120 = conditions: for Kd: quantitative ELISA, FIG. 7

| Sequence | binding to gp120JR-FL (gp120JR-FL) | binding of CD4BS mAbs b12, b6 and m14 to peptide/gp120 complex (gp120451) | binding of CD4 to peptide/gp120 complex (gp120451) | binding to gp120451 (gp120451; phage-displayed peptide) | induction of the CG10 epitope (CG10 mAb binding to peptide/gp120451 complex) (gp120451; phage-displayed peptide) | binding of peptide to CD4 alone (CD4) | CD4 binding by peptide-captured gp120BaL (gp120BaL) | induction of CD4i epitopes (CG10, 17b) in gp120BaL (gp120BaL) | integrity of neutralizing / CD4BS epitopes (2G12, b12, b6, m14) in peptide-captured gp120BaL (gp120BaL) | binding to gp120BaL (gp120BaL; phage-displayed peptide) | fold increase in binding / affinity for gp120 versus m1 (gp120; compared with m1) | Kd (gp120; read-out: KD for gp120 binding) | Kd (gp120; read-out: apparent affinity constant for gp120 binding) |
| --- | --- | --- | --- | --- | --- | --- | --- | --- | --- | --- | --- | --- | --- |
| CDRRDLPQWAKREC [m1] | not to gp120JR-FL | bind the m1/gp120 complex very well; also recorded: without interfering with b12, b6 or m14 binding | CD4 itself bound the m1/gp120 complex | specifically bind gp120; also recorded: binds gp120; also recorded: binds to gp120451 | elicit the CG10 epitope; also recorded: CG10 bound the complex; also recorded: induces the CG10 epitope; also recorded: induced CG10 binding | no affinity for CD4 alone; also recorded: CD4 does not bind m1 |  |  |  |  |  |  |  |
| CDRRDLPDWAIRAC [m2] |  | without interfering with b12, b6 or m14 binding |  |  | induced CG10 binding |  | is able to bind CD4 itself | induces CD4i epitopes; also recorded: induces both the CG10 and 17b epitopes | maintains the integrity of the CD4BS epitopes; also recorded: intact and available | binds m2 peptide; also recorded: binds also to gp120BaL | 10 fold | 6.5 nM | 6.5 nM |
